Here are results for 19 compounds from US10035804B2, “Spirodiamine derivatives as aldosterone synthase inhibitors” (Hoffmann-La Roche Inc., priority 2014, dated 2018).

The target in assay [1] is human CYP11B2 (Homo sapiens (Human), UniProt P19099). Kind of assay: G-402 cellular enzyme assay, human CYP11B2 (aldosterone release). It is filed as cell-based. The settings on record: G-402 cells expressing human CYP11B2; 1 μM Deoxycorticosterone; aldosterone in supernatant after 16 h. The source says: (§1) Herein we identified the use of the G-402 cell line as a host cell to ectopically express (transiently or stably) enzymes of the CYP11 family. Specifically we developed stable G-402 cells expressing ectopically human CYP11B1, human CYP11B2, human CYP11A1, cynmolgus CYP11B1 or cynomolgus CYP11B2 enzyme activity. Importantly the identified cell line G-402 expresses co-factors (adrenodoxin and adrenodoxin reductase) important for the activity of the CYP11 family and no relevant enzyme activity of the CYP11 family (in comparison to H295R cells) was detected in these cells. Therefore the G-402 cell line is uniquely suited as a host cell for the ectopic expression of enzymes from the CYP11 family.
(§2) G-402 cells can be obtained from ATCC (CRL-1440) and were originally derived from a renal leiomyoblastoma.
(§3) The expression plasmids contains the ORF for either human/cyno CYP11B1 or CYP11B2 under the control of a suitable promoter (CMV-promoter) and a suitable resistance marker (neomycin). Using standard techniques the expression plasmid is transfected into G-402 cells and these cells are then selected for expressing the given resistance markers. Individual cell-clones are then selected and assessed for displaying the desired enzymatic activity using 11-Deoxycorticosterone (Cyp11B2) or 11-Deoxycortisol (Cyp11B1) as a substrate.
(§4) G-402 cells expressing CYP11 constructs were established as described above and maintained in McCoy's 5a Medium Modified, ATCC Catalog No. 30-2007 containing 10% FCS and 400 μg/ml G418 (Geneticin) at 37° C. under an atmosphere of 5% CO2/95% air. Cellular enzyme assays were performed in DMEM/F12 medium containing 2.5% charcoal treated FCS and appropriate concentration of substrate (0.3-10 uM 11-Deoxycorticosterone, 11-Deoxycortisol or Corticosterone). For assaying enzymatic activity, cells were plated onto 96 well plates and incubated for 16 h. An aliquot of the supernatant is then transferred and analyzed for the concentration of the expected product (Aldosterone for CYP11B2; Cortisol for CYP11B1). The concentrations of these steroids can be determined using HTRF assays from CisBio analyzing either Aldosterone or Cortisol.
(§5) Inhibition of the release of produced steroids can be used as a measure of the respective enzyme inhibition by test compounds added during the cellular enzyme assay. The dose dependent inhibition of enzymatic activity by a compound is calculated by means of plotting added inhibitor concentrations (x-axes) vs. measured steroid/product level (y-axes). The inhibition is then calculated by fitting the following 4-parameter sigmoidal function (Morgan-Mercer-Flodin (MMF) model) to the raw data points using the least squares method:
(§6) [formula] wherein, A is the maximum y value, B is the EC50 factor determined using XLFit, C is the minimum y value and D is the slope value.
(§7) EC50 values for compounds claimed herein were tested with the G402-based assay system described. Cyp11B2 enzyme activity was tested in presence of 1 μM Deoxycorticosterone and variable amounts of inhibitors; Cyp11B1 enzyme activity was tested in presence of 1 μM Deoxycortisol and variable amounts of inhibitors.

The target of assay [2] is human CYP11B1 (Homo sapiens (Human), UniProt P15538). Kind of assay: G-402 cellular enzyme assay, human CYP11B1 (cortisol release). It is filed as cell-based. The conditions noted are these: G-402 cells expressing human CYP11B1; 1 μM Deoxycortisol; cortisol in supernatant after 16 h.
Source text: as §1, §2, §3, §4, §5, §6, §7

Sequence of human CYP11B2 (P19099 25-503): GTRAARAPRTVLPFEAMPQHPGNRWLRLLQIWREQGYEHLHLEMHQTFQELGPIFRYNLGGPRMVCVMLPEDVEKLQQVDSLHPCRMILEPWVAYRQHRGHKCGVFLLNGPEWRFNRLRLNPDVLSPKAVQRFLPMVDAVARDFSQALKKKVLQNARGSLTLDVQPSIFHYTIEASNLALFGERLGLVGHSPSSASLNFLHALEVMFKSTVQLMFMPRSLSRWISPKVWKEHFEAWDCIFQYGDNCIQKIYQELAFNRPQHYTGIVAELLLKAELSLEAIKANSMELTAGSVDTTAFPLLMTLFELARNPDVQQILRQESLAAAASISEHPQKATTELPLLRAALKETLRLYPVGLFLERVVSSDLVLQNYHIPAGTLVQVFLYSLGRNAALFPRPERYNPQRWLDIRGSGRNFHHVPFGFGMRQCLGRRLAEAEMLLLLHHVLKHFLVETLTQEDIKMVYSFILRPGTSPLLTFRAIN
Sequence of human CYP11B1 (P15538 25-503): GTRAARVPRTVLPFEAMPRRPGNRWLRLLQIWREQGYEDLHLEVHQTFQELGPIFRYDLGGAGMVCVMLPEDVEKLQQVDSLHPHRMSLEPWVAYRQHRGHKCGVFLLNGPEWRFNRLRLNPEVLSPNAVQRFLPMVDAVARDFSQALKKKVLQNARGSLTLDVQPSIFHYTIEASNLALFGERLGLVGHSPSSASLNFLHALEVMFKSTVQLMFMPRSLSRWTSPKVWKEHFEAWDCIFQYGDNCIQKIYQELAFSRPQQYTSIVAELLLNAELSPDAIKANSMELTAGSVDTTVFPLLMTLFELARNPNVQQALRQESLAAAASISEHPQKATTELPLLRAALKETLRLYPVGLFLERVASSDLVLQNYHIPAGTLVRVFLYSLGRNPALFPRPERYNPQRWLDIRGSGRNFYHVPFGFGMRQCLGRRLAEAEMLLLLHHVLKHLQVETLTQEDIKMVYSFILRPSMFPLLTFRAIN

In the case of `COc1ccc2c(n1)C(C)(C)N(c1cncc(N3CC4(CN(C(=O)c5cnn(C)c5)C4)C3)c1)C2=O` [Example 15, 2-Methoxy-7,7-dimethyl-6-[5-[2-(1-methylpyrazole-4-carbonyl)-2,6-diazaspiro[3.3]heptan-6-yl]-3-pyridyl]pyrrolo[3,4-b]pyridin-5-one], the EC50 (commonly the concentration at which the effect is half-maximal) in assay [1] was found to be 0.0205 nM; in assay [2], 18.9 nM.

As to `Cn1nccc1C(=O)N1CC2(C1)CN(c1cncc(N3C(=O)c4ccc(Cl)cc4C34CC4)c1)C2` [Example 21, 5′-Chloro-2′-[5-[2-(2-methylpyrazole-3-carbonyl)-2,6-diazaspiro[3.3]heptan-6-yl]-3-pyridyl]spiro[cyclopropane-1,3′-isoindoline]-1′-one], the EC50 was 0.293 nM in assay [1] and more than 30 nM in assay [2].

For the compound `Cc1nc(C(=O)N2CC3(C2)CN(c2cncc(N4C(=O)c5ccc(Cl)cc5C4(C)C)c2)C3)co1` [Example 45, 5-Chloro-3,3-dimethyl-2-[5-[2-(2-methyloxazole-4-carbonyl)-2,6-diazaspiro[3.3]heptan-6-yl]-3-pyridyl]isoindolin-1-one], the EC50 worked out at 0.068 nM in assay [1] and 2.09 nM in assay [2].

Take `CC1(C)c2cc(Cl)ccc2C(=O)N1c1cncc(N2CC3(CN(C(=O)c4cocn4)C3)C2)c1` [Example 42, 5-Chloro-3,3-dimethyl-2-[5-[2-(oxazole-4-carbonyl)-2,6-diazaspiro[3.3]heptan-6-yl]-3-pyridyl]isoindolin-1-one]: the results for the EC50 in assay [1] and in assay [2] were 0.0102 nM and 1.05 nM, respectively.

On to `COc1nccnc1C(=O)N1CC2(C1)CN(c1cncc(N3C(=O)c4ccc(Cl)cc4C3(C)C)c1)C2` [Example 37, 5-Chloro-2-[5-[2-(3-methoxypyrazine-2-carbonyl)-2,6-diazaspiro[3.3]heptan-6-yl]-3-pyridyl]-3,3-dimethyl-isoindolin-1-one], for which the EC50 in assay [1] came to 0.0754 nM; in assay [2], 16.1 nM.

Consider `Cc1c(C(=O)N2CC3(C2)CN(c2cncc(N4C(=O)c5ccc(Cl)cc5C4(C)C)c2)C3)cnn1C` [Example 26, 5-Chloro-2-[5-[2-(1,5-dimethylpyrazole-4-carbonyl)-2,6-diazaspiro[3.3]heptan-6-yl]-3-pyridyl]-3,3-dimethyl-isoindolin-1-one], for which the EC50 in assay [1] was 0.0775 nM; in assay [2], 35.5 nM.

With `Cn1ccnc1C(=O)N1CC2(C1)CN(c1cncc(N3C(=O)c4ccc(Cl)cc4C3(C)C)c1)C2` [Example 4, 5-Chloro-3,3-dimethyl-2-[5-[2-(1-methylimidazole-2-carbonyl)-2,6-diazaspiro[3.3]heptan-6-yl]-3-pyridyl]isoindolin-1-one], the EC50 in assay [1] amounted to 0.0099 nM; in assay [2], 1.1 nM.

As for `Cn1cc(C(=O)N2CC3(C2)CN(c2cncc(N4C(=O)c5ccc(Cl)cc5C45CC5)c2)C3)cn1` [Example 19, 5′-Chloro-2′-[5-[2-(1-methylpyrazole-4-carbonyl)-2,6-diazaspiro[3.3]heptan-6-yl]-3-pyridyl]spiro[cyclopropane-1,3′-isoindoline]-1′-one], the EC50 in assay [1] was 0.0029 nM; in assay [2], 7.69 nM.

As to `COc1ccc2c(n1)C(C)(C)N(c1cncc(N3CC4(CN(C(=O)c5ccnn5C)C4)C3)c1)C2=O` [Example 17, 2-Methoxy-7,7-dimethyl-6-[5-[2-(2-methylpyrazole-3-carbonyl)-2,6-diazaspiro[3.3]heptan-6-yl]-3-pyridyl]pyrrolo[3,4-b]pyridin-5-one], the EC50 in assay [1] came out at 0.901 nM; in assay [2], 33.2 nM.

For `Cc1ccncc1C(=O)N1CC2(C1)CN(c1cncc(N3C(=O)c4ccc(Cl)cc4C34CC4)c1)C2` [Example 20, 5′-Chloro-2′-[5-[2-(4-methylpyridine-3-carbonyl)-2,6-diazaspiro[3.3]heptan-6-yl]-3-pyridyl]spiro[cyclopropane-1,3′-isoindoline]-1′-one], the EC50 in assay [1] amounted to 0.0195 nM; in assay [2], 20 nM.

As to `Cc1ncncc1C(=O)N1CC2(C1)CN(c1cncc(N3C(=O)c4ccc(Cl)cc4C3(C)C)c1)C2` [Example 29, 5-Chloro-3,3-dimethyl-2-[5-[2-(4-methylpyrimidine-5-carbonyl)-2,6-diazaspiro[3.3]heptan-6-yl]-3-pyridyl]isoindolin-1-one], the EC50 is 0.0748 nM in assay [1] and more than 30 nM in assay [2].

As for `CC1(C)c2cc(Cl)ccc2C(=O)N1c1cncc(N2CC3(CN(C(=O)c4ncccc4C#N)C3)C2)c1` [Example 46, 2-[6-[5-(6-Chloro-1,1-dimethyl-3-oxo-isoindolin-2-yl)-3-pyridyl]-2,6-diazaspiro[3.3]heptane-2-carbonyl]pyridine-3-carbonitrile], the EC50 in assay [1] is 0.0383 nM; in assay [2] it was 3.86 nM.

Take `Cc1nocc1C(=O)N1CC2(C1)CN(c1cncc(N3C(=O)c4ccc(Cl)cc4C3(C)C)c1)C2` [Example 27, 5-Chloro-3,3-dimethyl-2-[5-[2-(3-methylisoxazole-4-carbonyl)-2,6-diazaspiro[3.3]heptan-6-yl]-3-pyridyl]isoindolin-1-one]: the EC50 in assay [1] amounted to 0.104 nM; in assay [2], 14 nM.

As for `CC1(C)c2cc(Cl)ccc2C(=O)N1c1cncc(N2CC3(CN(C(=O)c4cnccc4C#N)C3)C2)c1` [Example 50, 3-[6-[5-(6-Chloro-1,1-dimethyl-3-oxo-isoindolin-2-yl)-3-pyridyl]-2,6-diazaspiro[3.3]heptane-2-carbonyl]pyridine-4-carbonitrile], the concentration for a half-maximal effect (EC50) in assay [1] was 0.0248 nM; in assay [2], 16.8 nM.

In the case of `CC1(C)c2cc(Cl)ccc2C(=O)N1c1cncc(N2CC3(CN(C(=O)c4ncccn4)C3)C2)c1` [Example 33, 5-Chloro-3,3-dimethyl-2-[5-[2-(pyrimidine-2-carbonyl)-2,6-diazaspiro[3.3]heptan-6-yl]-3-pyridyl]isoindolin-1-one], the EC50 in assay [1] stood at 0.0497 nM; in assay [2], 1.75 nM.

Take `Cc1ccnc(C)c1C(=O)N1CC2(C1)CN(c1cncc(N3C(=O)c4ccc(Cl)cc4C3(C)C)c1)C2` [Example 49, 5-Chloro-2-[5-[2-(2,4-dimethylpyridine-3-carbonyl)-2,6-diazaspiro[3.3]heptan-6-yl]-3-pyridyl]-3,3-dimethyl-isoindolin-1-one]: the half-maximal effective concentration (EC50) in assay [1] amounted to 0.111 nM; in assay [2] it was 5.07 nM.

On to `Cc1nc(C)c(C(=O)N2CC3(C2)CN(c2cncc(N4C(=O)c5ccc(Cl)cc5C4(C)C)c2)C3)o1` [Example 44, 5-Chloro-2-[5-[2-(2,4-dimethyloxazole-5-carbonyl)-2,6-diazaspiro[3.3]heptan-6-yl]-3-pyridyl]-3,3-dimethyl-isoindolin-1-one], for which the values for the EC50 in assay [1] and in assay [2] were 0.0907 nM and 18 nM, respectively.

In the case of `Cc1ncc(Cl)c(C(=O)N2CC3(C2)CN(c2cncc(N4C(=O)c5ccc(Cl)cc5C4(C)C)c2)C3)n1` [Example 47, 5-Chloro-2-[5-[2-(5-chloro-2-methyl-pyrimidine-4-carbonyl)-2,6-diazaspiro[3.3]heptan-6-yl]-3-pyridyl]-3,3-dimethyl-isoindolin-1-one], the EC50 in assay [1] amounted to 0.504 nM; in assay [2], 8.31 nM.

Take `CCn1cc(C(=O)N2CC3(C2)CN(c2cncc(N4C(=O)c5ccc(Cl)cc5C4(C)C)c2)C3)cn1` [Example 2, 5-Chloro-2-[5-[2-(1-ethylpyrazole-4-carbonyl)-2,6-diazaspiro[3.3]heptan-6-yl]-3-pyridyl]-3,3-dimethyl-isoindolin-1-one]: the concentration giving a half-maximal response (EC50) in assay [1] was found to be 0.003 nM; in assay [2], 11.1 nM.
